Test results from patent US12507703B2, “Methods, devices and compositions for preserving human milk” (The Trustees of Princeton University, priority 2023, dated 2025).
Where “and” joins values, the source holds several entries; their conditions need not be identical. Equal entries are not always repeated.

System: lipase
Assay: Lipase/lipolysis assay (EnzChek Lipase Substrate, quenched BODIPY-fatty acid conjugate) on stored human milk; also: test concentration or dose not given here

| Compound | Lipase (RFU) |
| --- | --- |
| Cl.N=C(N)NCCC[C@H](N)C(=O)O [L-Arginine (hydrochloride)] | 1273.102 RFU |
| CCO.C[C@H]1c2cccc(O)c2C(O)=C2C(=O)[C@]3(O)C(O)=C(C(N)=O)C(=O)[C@@H](N(C)C)[C@@H]3[C@@H](O)[C@@H]21.C[C@H]1c2cccc(O)c2C(O)=C2C(=O)[C@]3(O)C(O)=C(C(N)=O)C(=O)[C@@H](N(C)C)[C@@H]3[C@@H](O)[C@@H]21.Cl.Cl.O [Doxycycline (hyclate)] | 757.6717 RFU |
| OC[C@@H](O)[C@H](O)[C@H](O)[C@@H](O)CO [Dulcitol] | 642.9411 RFU |
| COc1cc2c(CCNC(C)=O)c[nH]c2cc1O [Compound 6-Hydroxymelatonin] | 976.0382 RFU |
| O=c1ccc2cc3ccoc3c(O)c2o1 [Xanthotoxol] | 1117.591 RFU |
| C[N+](C)(C)CCOP(=O)(O)O [Phosphoryl Choline] | 931.0385 RFU |
| O=S(=O)([O-])c1ccc2c(N=Nc3ccc(S(=O)(=O)[O-])c4ccccc34)c(O)c(S(=O)(=O)[O-])cc2c1.[Na+].[Na+].[Na+] [Amaranth] | 987.0531 RFU |
| CC(C)=CCc1c(O)cc2oc3cc(O)c(O)c(CCC(C)(C)O)c3c(=O)c2c1O [Garcinone C] | 921.9256 RFU |
| CC(C)CCC[C@@H](C)[C@H]1CC[C@H]2C3=CC=C4C[C@@H](O)CC[C@]4(C)[C@H]3CC[C@]12C [Compound 7-Dehydrocholesterol] | 820.8412 RFU |
| CCCCC[C@H](O)/C=C/[C@H]1[C@H](O)CC(=O)[C@@H]1C/C=C\CCCC(=O)O [Prostaglandin E2] | 1264.564 RFU |
| CCCCCC(=O)O [Caproic Acid] | 905.3416 RFU |
| O=C1c2ccccc2C(=O)c2cc(CO)ccc21 [2-(Hydroxymethyl)anthraquinone] | 723.6408 RFU |
| Cc1ccc(OS(=O)(=O)[O-])cc1.[K+] [p-Cresyl sulfate (potassium)] | 825.569 RFU |
| (−)-Fenchone | 812.4614 RFU |
| O=C1CC(C(=O)O)c2c1oc(=O)c1cc(O)c(O)c(O)c21 (centres unmarked) [Brevifolincarboxylic acid] | 760.1752 RFU |
| O.O=C(O)c1cc(O)c(O)c(O)c1 [Gallic acid (hydrate)] | 709.0148 RFU |
| Maltohexaose | 977.7036 RFU |
| CCCCCCCCCC=O [Decyl aldehyde] | 807.9785 RFU and 682.2968 RFU |
| COc1cc(CC(=O)O)ccc1O [Homovanillic acid] | 934.4466 RFU |
| C=C(CO)C(=O)O[C@H]1CC(=C)[C@@H]2C[C@H](O)C(=C)[C@@H]2[C@H]2OC(=O)C(=C)[C@@H]21 [Cynaropicrin] | 1182.791 RFU |
| O=c1ccc2cc(O)c(O[C@@H]3O[C@H](CO)[C@@H](O)[C@H](O)[C@H]3O)cc2o1 [Cichoriin] | 714.076 RFU |
| O=C(O)C(F)(F)F.O=C1N[C@@H](Cc2cnc[nH]2)C(=O)N2CCC[C@@H]12 [Cyclo(his-pro) (TFA)] | 956.1787 RFU |
| CCCCC1OC(=O)c2ccccc21 (centres unmarked) [Butylphthalide] | 989.7778 RFU |
| NC(=O)NCCCC[C@H](N)C(=O)O [L-Homocitrulline] | 822.9997 RFU |
| COc1cc(CCN)ccc1O.Cl [3-Methoxytyramine (hydrochloride)] | 963.841 RFU |
| O=C(c1ccccc1)C(O)c1ccccc1 (centres unmarked) [Benzoin] | 968.9971 RFU |
| O=C(O)C[C@H](O)C(=O)O [L-Malic Acid] | 1144.049 RFU |
| C=C1C(=O)O[C@@H]2C[C@@]3(C)CCC[C@H](C)C3=C[C@H]12 [Alantolactone] | 900.1725 RFU |
| N#CCCN [β-Aminopropionitrile] | 985.2024 RFU |
